In publication PMC6536313 (Bioorganic & medicinal chemistry, 2019):
Values belong to the molecule of their own block, whether it stands above or below them.

What was measured:
σ2 receptor (σ2R) = σ2 receptor (σ2R) (Homo sapiens, UniProt Q5BJF2); assay: Sigma-2 receptor radioligand binding; conditions: for σ2R pKi ± SEM: Mean ± SEM
σ1 receptor (σ1R) = σ1 receptor (σ1R) (Homo sapiens, UniProt Q99720); assay: Sigma-1 receptor radioligand binding
[1] = on removal of both chloro and fluoro substituents (ether analogs 13-15)

Sequence of σ2 receptor (σ2R) (Q5BJF2 whole entry, species assumed): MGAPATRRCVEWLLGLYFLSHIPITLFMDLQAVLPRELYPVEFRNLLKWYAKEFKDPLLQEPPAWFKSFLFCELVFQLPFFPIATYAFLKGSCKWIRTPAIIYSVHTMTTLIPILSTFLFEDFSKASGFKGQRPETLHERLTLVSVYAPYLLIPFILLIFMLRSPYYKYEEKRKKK
Sequence of σ1 receptor (σ1R) (Q99720 whole entry, species assumed): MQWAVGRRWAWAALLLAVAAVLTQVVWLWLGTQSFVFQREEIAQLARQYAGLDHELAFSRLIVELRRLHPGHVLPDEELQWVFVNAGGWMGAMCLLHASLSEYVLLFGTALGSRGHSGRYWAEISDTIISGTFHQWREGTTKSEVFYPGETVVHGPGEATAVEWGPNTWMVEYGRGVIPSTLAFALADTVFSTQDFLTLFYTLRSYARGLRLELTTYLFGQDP

σ2R pKi ± SEM (σ2 receptor (σ2R)): 7.49 ± 0.09
Structure (SMILES): O=C(CCCN1CCCN(c2ccccn2)CC1)c1ccc(F)cc1 [Compound 3, 1-(4-fluorophenyl)-4-(4-(pyridin-2-yl)-1,4-diazepan-1-yl)butan-1-one]

σ2R pKi ± SEM (σ2 receptor (σ2R)): 8.07 ± 0.06
Structure (SMILES): Fc1ccc(CCCCN2CCCN(c3ccc(Cl)cc3)CC2)cc1 [Compound 5]

σ2R pKi ± SEM (σ2 receptor (σ2R)): 8.65 ± 0.05
Structure (SMILES): Fc1ccc(SCCCN2CCCN(c3ccc(Cl)cn3)CC2)cc1 [Compound 7, 1-(5-chloropyridin-2-yl)-4-(3-((4-fluorophenyl)thio)propyl)-1,4-diazepane]

σ2R pKi ± SEM (σ2 receptor (σ2R)): 7.37 ± 0.05
Structure (SMILES): Fc1ccc(CCCCN2CCN(c3ccc(Cl)cn3)CC2)cc1 [Compound 10, 1-(5-chloropyridin-2-yl)-4-(4-(4-fluorophenyl)butyl)piperazine]

fold reduction/loss of binding affinity at σ1 receptor (σ1 receptor (σ1R); relative to compound 8): greater than 45 fold | fold reduction/loss of binding affinity at σ2 receptor (σ2 receptor (σ2R); relative to compound 8): > 71 fold
Structure (SMILES): [O-][S+](CCCN1CCN(c2ccc(Cl)cc2)CC1)c1ccc(F)cc1 (centres unmarked) [Compound 12]

σ2R pKi ± SEM (σ2 receptor (σ2R)): 7.48 ± 0.09
Structure (SMILES): Clc1ccc(N2CCN(CCCOc3ccccc3)CC2)cc1 [Compound 13]

fold decrease in binding affinity at σ1 receptor (σ1 receptor (σ1R); [1]): 2–5 fold | fold decrease in binding affinity at σ2 receptor (σ2 receptor (σ2R); [1]): 2–5 fold
Structure (SMILES): c1ccc(OCCCN2CCN(c3ccccc3)CC2)cc1 [Compound 15]

Structure (SMILES): OC1(c2ccc(Cl)cc2)CC2CCC(C1)N2CCCCc1ccc(F)cc1 (centres unmarked) [Compound 17]
fold lower affinity for σ1 receptor (σ1 receptor (σ1R); relative to compound 5): 6 fold | fold lower affinity for σ2 receptor (σ2 receptor (σ2R); relative to compound 5): 3 fold
